The subject of one assay is SNU-1 cells. Put plainly: Cell viability assay (CCK-8), SNU-1. The following applies: Homo sapiens, SNU1, Fig. 1a 48 h exposure, 0–1 µM, read-out: IC50 antiproliferative effect. Format: cell-based. On the procedure:
(§1) Human GC cell lines SNU-1, HGC27 and MGC803 were purchased from Peking Union Medical College, and the NCI-N87 cell line was a gift from You-yong Lv, Ph.D. (Peking University Cancer Hospital and Institute). Cells were cultured in RPMI 1640 medium and Dulbecco’s Modified Eagle Medium (Gibco-BRL, MD, USA), respectively, supplemented with 10% fetal bovine serum (Gibco-BRL), 100 U/ml penicillin (Gibco-BRL) and […] streptomycin (Gibco-BRL). Cells were incubated in a humidified incubator (37 °C) supplemented with 5% CO2.
(§2) SNU-1, HGC27, MGC803 and NCI-N87 cells (5000 cells/well) were seeded in 96-well plates and incubated overnight in complete medium, followed by exposure to gimatecan (0–1 µM) or irinotecan (0–1 µM) for 24, 48, or 72 h. Cell viability was measured using a Cell Counting Kit-8 (Dojindo, Kumamoto, Japan) according to the manufacturer’s instructions. Absorbance at 450 nm was measured using a microplate spectrophotometer. All experiments were repeated at least three times.

For a further assay, the system named is HGC27 cells. The assay is described as follows: Cell viability assay (CCK-8), HGC27. Format: cell-based. Particulars: Homo sapiens, HGC-27, Fig. S1A 48 h exposure, 0–1 µM, read-out: IC50 antiproliferative effect. On the procedure: as §1, §2
The next assay relates to MGC803 cells. The assay is described as follows: Cell viability assay (CCK-8), MGC803. In kind it is cell-based. The following applies: Homo sapiens, MGC-803, Fig. S1B 48 h exposure, 0–1 µM, read-out: IC50 antiproliferative effect. The procedure: as §1
[…] Cell viability was measured using a Cell Counting Kit-8 (Dojindo, Kumamoto, Japan) according to the manufacturer’s instructions. Absorbance at 450 nm was measured using a microplate spectrophotometer. All experiments were repeated at least three times.

For another assay, the system named is Bak, Bcl-2, cleaved PARP. The assay is described as follows: Western blot of Bak, Bcl-2, PARP in GC cells. The following applies: SNU-1 and HGC27. Format: cell-based, human. On the procedure: SNU-1, HGC27 and NCI-N87 cells were starved in serum-free medium overnight, exposed to inhibitors for 48 h and harvested at 70–80% confluence. Total protein was extracted from cells or xenograft tissues on ice, using RIPA Lysis Buffer (Beyotime, Shanghai, China) supplemented with complete protease inhibitor and phosphatase inhibitor cocktail (Roche, Basel, Switzerland). Protein concentration was measured using a BCA Protein Assay Kit (Beyotime, Shanghai, China), and 50 μg protein from each sample was separated by 10% SDS-PAGE. After transfer to nitrocellulose membranes (GE Healthcare, Piscataway, NJ), samples were incubated with corresponding primary antibodies diluted in 5% BSA at 4 °C overnight and then with secondary antibodies at room temperature for 1 h. […] Western-blotting bands were quantified and normalized by ImageJ software.
Cells were treated with gimatecan (0–1 µM) and irinotecan (0–1 µM) for 24 h and stained with Annexin V-PE/7-AAD. Sums of percentages of early apoptosis (Q3) and late apoptosis (Q2) were calculated as the total apoptosis ratios. c, d Pro- and anti-apoptotic proteins including Bcl-2, Bak, PARP and cleaved PARP were assessed by western-blotting in SNU-1 and NCI-N87 cells. Western-blotting bands were quantified and normalized by ImageJ. […]

Broadly, the IC50 is the concentration needed to halve the response being measured.

Where a name gives a salt, the structure may show the parent alone.

For `CC[C@@]1(O)C(=O)OCc2c1cc1n(c2=O)Cc2c-1nc1ccccc1c2/C=N/OC(C)(C)C` [Gimatecan, 7-t-butoxyiminomethylcamptothecin], the half-inhibitory concentration (IC50) in the assay with SNU-1 cells is 1.95 nM; in the assay with HGC27 cells it was 1.63 nM; in the assay on MGC803 cells, 3.29 nM. Moreover, the “Bak, Bcl-2 and PARP protein after treatment” value in the assay on Bak, Bcl-2, cleaved PARP was “Bak and cleaved PARP expression was increased and Bcl-2 expression was inhibited”.

Take `CCc1c2c(nc3ccc(OC(=O)N4CCC(N5CCCCC5)CC4)cc13)-c1cc3c(c(=O)n1C2)COC(=O)[C@]3(O)CC` [Irinotecan, irinotecan hydrochloride]: the IC50 in the assay with SNU-1 cells is 3250 nM; with HGC27 cells, 152 nM. In addition, the “Bak, Bcl-2 and PARP protein after treatment” value in the assay with Bak, Bcl-2, cleaved PARP is “apoptosis was not induced”.

The values are drawn from article PMC5729429, “Gimatecan exerts potent antitumor activity against gastric cancer in vitro and in vivo via AKT and MAPK signaling pathways” (Journal of Translational Medicine, 2017).
